# From patent US5258398A, “Antithrombotic diaminoalkanoic acid derivatives” (Rhone-Poulenc Rorer Pharmaceuticals Inc., priority 1991, dated 1993)
# pIC50: −log10 of the molar value.
# System: fixed activated platelets
# Assay: Platelet Aggregation Assay (inhibition of fibrinogen-mediated aggregation of fixed-activated platelets)
# Assay type: cell-based
# Conditions: human fibrinogen 250 μg/ml, fixed thrombin-activated human platelets
# Text: (§1) The effectiveness of compounds of the present invention as inhibitors of thrombus formation and platelet aggregation may be determined by the following pharmacologic tests which evaluate the inhibition of fibrinogen-mediated platelet aggregation and fibrinogen binding to thrombin-stimulated platelets by said compounds.
# (§2) The Platelet Aggregation Assay is based on that described in Blood 66 (4), 946-952 (1985). The Fibrinogen-Binding Assay is essentially that of Ruggeri, Z. M., et al., Proc. Natl. Acad. Sci. USA 83, 5708-5712 (1986) and Plow, E. F., et al., Proc. Natl. Acad. Sci., USA 82, 8057-8061 (1985).
# Preparation of Fixed-Activated Platelets
# Platelets are isolated from human platelet concentrates using the gel-filtration technique as described by Marguerie, G. A., et al., J. Biol. Chem. 254, 5357-5363 (1979) and Ruggeri, Z. M., et al., J. Clin. Invest. 72, 1-12 (1983). The platelets are suspended at a concentration of 2×10^8 cells/ml in a modified calcium-free Tyrode's buffer containing 127 mM sodium chloride, 2 mM magnesium chloride, 0.42 mM Na2 HPO4, 11.9 mM NaHCO3, 2.9 mM KCl, 5.5 mM glucose, 10 mM HEPES, at a pH of 7.35 and 0.35% human serum albumin (HSA). These washed platelets are activated by addition of human α-thrombin at a final concentration of 2 units/ml, followed by thrombin inhibitor I-2581 at a final concentration of 40 μM. To the activated platelets is added paraformaldehyde to a final concentration of 0.50% and this incubated at room temperature for 30 minutes. The fixed activated platelets are then collected by centrifugation at 650×g for 15 minutes. The platelet pellets are washed four times with the above Tyrode's-0.35% HSA buffer and resuspended to 2×10^8 cells/ml in the same buffer.
# Platelet Aggregation Assay
# The fixed activated platelets are incubated with a selected dose of the compound to be tested for platelet aggregation inhibition for one minute and aggregation initiated by addition of human fibrinogen to a final concentration of 250 μg/ml. A platelet aggregation profiler Model PAP-4 is used to record the platelet aggregation. The extent of inhibition of aggregation is expressed as the percentage of the rate of aggregation observed in the absence of inhibitor. IC50, i.e., the amount of inhibitor required to reduce the aggregation rate by 50%, is then calculated for each compound (see, for example, Plow, E. F., et al., Proc. Natl. Acad. Sci., USA 82, 8057-8061 (1985)).
row,Compound,pIC50
1,"N=C(N)NCCCCCCCC(=O)NC(CC(=O)O)NC(=O)CCCCCCCNC(=N)N (stereo not shown) [Example 1, N,N'-bis-(8-guanidino)octanoyl-3,3-diaminopropionic acid]",6.92
2,"N=C(N)NCCCCCCCCC(=O)N[C@H](CC(=O)O)NC(=O)CCCCCCCNC(=N)N [Example 2, (3S)-N-(8-guanidino)octanoyl-N'-(9-guanidino)nonanoyl-3,3-diaminopropionic acid]",5.89
3,"N=C(N)NCCCCCCC(=O)NC(CC(=O)O)NC(=O)CCCCCCNC(=N)N (stereo not shown) [Example 4, N,N'-bis-(7-guanidino)heptanoyl-3,3-diaminopropionic acid]",5.55
4,"N=C(N)NCCCCCCCCC(=O)NC(CC(=O)O)NC(=O)CCCCCCCCNC(=N)N (stereo not shown) [Example 5, N,N'-bis-(9-guanidino)nonanoyl-3,3-diaminopropionic acid]",6.85
5,"N=C(N)NCCCCCCCCC(=O)N[C@H](CC(=O)O)NC(=O)CCCCCCNC(=N)N [Example 6, (3S)-N-(7-guanidino)heptanoyl-N'-(9-guanidino)nonanoyl-3,3-diaminopropionicacid]",5.55
6,"N=C(N)NCCCCCCCC(=O)N[C@H](CC(=O)O)NC(=O)CCCCCCNC(=N)N [Example 7, (3S)-N-(7-guanidino)heptanoyl-N'-(8-guanidino)octanoyl-3,3-diaminopropionicacid]",6.13
7,"N=C(N)NCCCCCCCCC(=O)N[C@@H](CC(=O)O)NC(=O)CCCCCCCNC(=N)N [Example 8, (3R)-N-(8-guanidino)octanoyl-N'-(9-guanidino)nonanoyl-3,3-diaminopropionic acid]",6.52
8,"N=C(N)NCCCCCCCC(=O)N[C@H](CC(=O)O)NC(=O)[C@@H](N)CCCNC(=N)N [Example 9, (3S)-N-L-arginyl-N'-(8-guanidino)octanoyl-3,3-diaminopropionic acid]",5.01
9,"N=C(N)NCCCCCCCCC(=O)N[C@@H](CC(=O)O)NC(=O)CCCCCCNC(=N)N [Example 10, (3R)-N-(7-guanidino)heptanoyl-N'-(9-guanidino)nonanoyl-3,3-diaminopropionicacid]",6.92
10,"N=C(N)NCCCCCCCC(=O)N[C@@H](CC(=O)O)NC(=O)CCCCCCNC(=N)N [Example 11, (3R)-N-(7-guanidino)heptanoyl-N'-(8-guanidino)octanoyl-3,3-diaminopropionicacid]",6.49
11,"CC(C)CC(=O)N[C@H](CC(=O)O)NC(=O)CCCCCCCNC(=N)N [Example 12, (3R)-N-(8-guanidino)octanoyl-N'-(3-methyl)butanoyl-3,3-diaminopropionic acid]",5.70
12,"CC[C@@H](C)[C@@H](NC(=O)CCCCNC(=N)N)C(=O)N[C@H](CC(=O)O)NC(=O)CCCCCCCCNC(=N)N [Example 15, (3R)-N-[N-[(5-guanidino)pentanoyl]-D-isoleucyl]-N'-(9-guanidino)nonanoyl-3,3-diaminopropionic acid]",4.60
13,CC[C@H](C)[C@H](NC(=O)CCCCNC(=N)N)C(=O)N[C@H](CC(=O)O)NC(=O)CCCCCCCCNC(=N)N [Example 17],4.76
14,"N=C(N)NCCCCCCCC(=O)NC(CCC(=O)O)NC(=O)CCCCCCCNC(=N)N (stereo not shown) [Example 18, N,N'-bis-(8-guanidino)octanoyl-4,4-diaminobutanoic acid]",< 4.00

# System: thrombin-stimulated platelets
# Assay: Fibrinogen-Binding Assay (inhibition of 125I-fibrinogen binding to platelets)
# Conditions: 125I-labeled fibrinogen 0.176 μmol/liter (60 μg/ml); 22°-25° C., 30 minutes; read-out: Inhibition of 125I-Fibrinogen Binding to Platelet (IC50)
# Text: as §1, §2
# Platelets are washed free of plasma constituents by the albumin density-gradient technique of Walsh, P. N., et al., Br. J. Haematol. 281-296 (1977), as modified by Trapani-Lombardo, V., et al., J. Clin Invest. 76, 1950-1958 (1985). […] The platelet pellet is then separated from the rest of the mixture to determine platelet-bound radioactivity. Nonspecific binding is measured in mixtures containing an excess of unlabeled ligand. When binding curves are analyzed by Scatchard analysis, nonspecific binding is derived as a fitted parameter from the binding isotherm by means of a computerized program (Munson, P. J., Methods Enzymol. 92, 542-576 (1983)). […]
row,Compound,pIC50
1,"N=C(N)NCCCCCCCC(=O)NC(CC(=O)O)NC(=O)CCCCCCCNC(=N)N (stereo not shown) [Example 1, N,N'-bis-(8-guanidino)octanoyl-3,3-diaminopropionic acid]",7.15
2,"N=C(N)NCCCCCCCC(=O)N[C@H](CC(=O)O)NC(=O)[C@@H](N)CCCNC(=N)N [Example 9, (3S)-N-L-arginyl-N'-(8-guanidino)octanoyl-3,3-diaminopropionic acid]",5.92
